Assay results published in patent publication US7521418B2, “Use of a polyene macrolide antifungal agent in combination with a glycopeptide antibacterial agent” (Theravance, Inc., priority 2003, dated 2009).

Experiments:
[1] = tested on: C. krusei ATCC 32672; assay: Checkerboard MIC assay, FICI; assay type: cell-based, Candida krusei
Excerpt: (§1) The following assay was used to determine the minimum inhibitory concentration (MIC) and fractional inhibitory concentration index (FICI) for combinations of an antifungal agent and a glycopeptide antibacterial agent. This assay and methods for calculating FICI are well known in the art. See, for example, Eliopoulos, E. G. and R. Moellering, Jr. “Antimicrobial Combinations” in Antibiotics in Laboratory Medicine, edited by V. Lorian, 4th Ed., Williams & Wilkins, Baltimore, MD, pp. 330-396 (1996); […] et al., Antimicrobial Agents and Chemotherapy 47(4):1416-1418 (2003); or […] et al., Antimicrobial Agents and Chemotherapy 46(10):3323-3326 (2002). Procedures, protocols, supplies and equipment used in this assay follow the recommendations approved and published by the National Committee for Clinical Laboratory Standards (NCCLS), Wayne, Pa. as described in NCCLS 2003, “Reference Method for Broth Dilution Antimicrobial Susceptibility Tests for Bacteria that Grow Aerobically; Approved Standard” (NCCLS document M7-A6); NCCLS 2002, “Reference Method for Broth Dilution Antifungal Susceptibility Tests of Filamentous Fungi that Grow Aerobically; Approved Standard” (NCCLS document M38-A); and NCCLS 2002 “Reference Method for Broth Dilution Antifungal Susceptibility Tests of Yeast; Approved Standards-2nd Edition” (NCCLS document M27-A2). Using a checkerboard method, a 2-fold dilution 100× final concentration master plate was prepared using a 96-well U-shape microtiter plate and an appropriate solvent. In the “checkerboard” method, a microtiter plate is divided into “columns” in which each well in the column contains the same amount of an antifungal agent (Compound A) being diluted along the x-axis, and “rows” in which each well in the row contains the same amount of a glycopeptide antibacterial agent (Compound B) being diluted on the y-axis. Also included is a row (or column) for Compound A or B alone. The dilutions used in the checkerboard are exponential (by powers of two). The result is that each well in the microtiter plate contains a unique concentration of the two compounds being tested. […] After mixing, 100 μL of 2× drug combinations were distributed into 96-well microtiter plates. […] Compound A was not added to Column 12, so Column 12 contained only Compound B. Compound B was diluted from row A starting at 6,400 μg/mL down to row G (100 μg/mL). Wells in Row A contained a final concentration of 64 μg/mL of Compound B; Row B contained a final concentration of 32 μg/mL of Compound B; Row C contained a final concentration of 16 μg/mL of Compound B; etc. Compound B was not added to Row H, so Row H only contained Compound A. […] The MIC of the glycopeptide antibacterial agent determined from this experiment was used in FIC calculations. […] RPMI-1640 without sodium bicarbonate media (GIBCO-BRL, Carlsbad, Calif.), an enriched media formulated for mammalian cells, was used according to the NCCLS guidelines for yeast and filamentous fungi susceptibility testing. The medium was buffered with 0.165 M 3-[N-Morpholino]propanesulfonic acid (MOPS) supplemented with 20 g/L glucose and pH adjusted to 7.0 with hydrogen chloride. Sabouraud Dextrose Agar ([…] plates, and Potato Dextrose Agar (PDA) plates were purchased from Hardy Diagnostic (Santa Maria, Calif.). Yeast cultures were started from -80° C. frozen stock streaked on […] incubated at 35° C. under aerobic conditions for 24 h. The […] in the refrigerator for up to 2 weeks and used regularly as a starting culture. About 24 to 48 h before each assay was run, yeasts were streaked on SDA plates for isolated colonies. To prepare the inoculum, from one to four colonies were resuspended in 5 mL of saline, and vortexed for 15 sec. […] For most yeast and mold cultures, the optical density (OD) of the suspension was adjusted to 0.11 in saline to provide 0.4×10^6 CFU/mL. However, for Fusarium moniliforme and Pseudallescheria boydii the OD of the suspension was adjusted to OD=0.17 to provide 0.4×10^6 CFU/mL. […]

[2] = tested on: C. albicans ATCC 24433; assay: Checkerboard MIC assay, FICI; assay type: cell-based, Candida albicans
Excerpt: as §1

[3] = tested on: C. tropicalis ATCC 750; assay: Checkerboard MIC assay, FICI; assay type: cell-based, Candida tropicalis
Excerpt: as §1

[4] = tested on: C. parapsilosis ATCC 22019; assay: Checkerboard MIC assay, FICI; assay type: cell-based, Candida parapsilosis
Excerpt: as §1

[5] = tested on: C. glabrata ATCC 200918; assay: Checkerboard MIC assay, FICI; assay type: cell-based, Candida glabrata; details: combination with Compound 1
Excerpt: The following assay was used to determine the minimum inhibitory concentration (MIC) and fractional inhibitory concentration index (FICI) for combinations of an antifungal agent and a glycopeptide antibacterial agent. This assay and methods for calculating FICI are well known in the art. See, for example, Eliopoulos, E. G. and R. Moellering, Jr. “Antimicrobial Combinations” in Antibiotics in Laboratory Medicine, edited by V. Lorian, 4th Ed., Williams & Wilkins, Baltimore, MD, pp. 330-396 (1996); […] et al., Antimicrobial Agents and Chemotherapy 47(4):1416-1418 (2003); or […] et al., Antimicrobial Agents and Chemotherapy 46(10):3323-3326 (2002). Procedures, protocols, supplies and equipment used in this assay follow the recommendations approved and published by the National Committee for Clinical Laboratory Standards (NCCLS), Wayne, Pa. as described in NCCLS 2003, “Reference Method for Broth Dilution Antimicrobial Susceptibility Tests for Bacteria that Grow Aerobically; Approved Standard” (NCCLS document M7-A6); NCCLS 2002, “Reference Method for Broth Dilution Antifungal Susceptibility Tests of Filamentous Fungi that Grow Aerobically; Approved Standard” (NCCLS document M38-A); and NCCLS 2002 “Reference Method for Broth Dilution Antifungal Susceptibility Tests of Yeast; Approved Standards-2nd Edition” (NCCLS document M27-A2). Using a checkerboard method, a 2-fold dilution 100× final concentration master plate was prepared using a 96-well U-shape microtiter plate and an appropriate solvent. In the “checkerboard” method, a microtiter plate is divided into “columns” in which each well in the column contains the same amount of an antifungal agent (Compound A) being diluted along the x-axis, and “rows” in which each well in the row contains the same amount of a glycopeptide antibacterial agent (Compound B) being diluted on the y-axis. Also included is a row (or column) for Compound A or B alone. The dilutions used in the checkerboard are exponential (by powers of two). The result is that each well in the microtiter plate contains a unique concentration of the two compounds being tested. […] After mixing, 100 μL of 2× drug combinations were distributed into 96-well microtiter plates. […] Compound A was not added to Column 12, so Column 12 contained only Compound B. Compound B was diluted from row A starting at 6,400 μg/mL down to row G (100 μg/mL). Wells in Row A contained a final concentration of 64 μg/mL of Compound B; Row B contained a final concentration of 32 μg/mL of Compound B; Row C contained a final concentration of 16 μg/mL of Compound B; etc. Compound B was not added to Row H, so Row H only contained Compound A. […] The MIC of the glycopeptide antibacterial agent determined from this experiment was used in FIC calculations. […]

[6] = tested on: various strains of fungi; assay: Assay for determining MIC and FICI, summary over strains; assay type: cell-based; details: combination with amphotericin B
Excerpt: The following assay was used to determine the minimum inhibitory concentration (MIC) and fractional inhibitory concentration index (FICI) for combinations of an antifungal agent and a glycopeptide antibacterial agent. This assay and methods for calculating FICI are well known in the art. See, for example, Eliopoulos, E. G. and R. Moellering, Jr. “Antimicrobial Combinations” in Antibiotics in Laboratory Medicine, edited by V. Lorian, 4th Ed., Williams & Wilkins, Baltimore, MD, pp. 330-396 (1996); Shalit et al., Antimicrobial Agents and Chemotherapy 47(4):1416-1418 (2003); or Afeltra et al., Antimicrobial Agents and Chemotherapy 46(10):3323-3326 (2002).
Procedures, protocols, supplies and equipment used in this assay follow the recommendations approved and published by the National Committee for Clinical Laboratory Standards (NCCLS), Wayne, Pa. as described in NCCLS 2003, “Reference Method for Broth Dilution Antimicrobial Susceptibility Tests for Bacteria that Grow Aerobically; Approved Standard” (NCCLS document M7-A6); NCCLS 2002, “Reference Method for Broth Dilution Antifungal Susceptibility Tests of Filamentous Fungi that Grow Aerobically; Approved Standard” (NCCLS document M38-A); and NCCLS 2002 “Reference Method for Broth Dilution Antifungal Susceptibility Tests of Yeast; Approved Standards-2nd Edition” (NCCLS document M27-A2). […]

[7] = combination with Amphotericin B, C. krusei 32672
[8] = combination with Amphotericin B, C. albicans 24433
[9] = combination with Amphotericin B, C. tropicalis 750
[10] = combination with Amphotericin B, C. parapsilosis 22019
[11] = combination with Compound 1, C. krusei ATCC 32672
[12] = combination with Compound 1, C. albicans ATCC 24433
[13] = combination with Compound 1, C. tropicalis ATCC 750
[14] = combination with Compound 1, C. parapsilosis ATCC 22019

| Compound | FICI [1, 7] | FICI [2, 8] | FICI [3, 9] | FICI [4, 10] | FICI [1, 11] | FICI [2, 12] | FICI [3, 13] | FICI [4, 14] | FICI [5] | effect of the combination [6] |
| --- | --- | --- | --- | --- | --- | --- | --- | --- | --- | --- |
| CCCCCCCCCCNCCN[C@@]1(C)C[C@H](O[C@H]2[C@H](Oc3c4cc5cc3Oc3ccc(cc3Cl)[C@@H](O)[C@@H](NC(=O)[C@@H](CC(C)C)NC)C(=O)N[C@@H](CC(N)=O)C(=O)N[C@H]5C(=O)N[C@H]3C(=O)N[C@H](C(=O)N[C@H](C(=O)O)c5cc(O)c(CNCP(=O)(O)O)c(O)c5-c5cc3ccc5O)[C@H](O)c3ccc(c(Cl)c3)O4)O[C@H](CO)[C@@H](O)[C@@H]2O)O[C@@H](C)[C@H]1O [Compound 1, telavancin] | 0.31 | 0.31 | 0.31 | 0.31 |  |  |  |  |  |  |
| OC(Cn1cncn1)(Cn1cncn1)c1ccc(F)cc1F [Fluconazole] |  |  |  |  | 2.00 | 2.00 | 2.00 | 2.00 | 2.00 |  |
| Clc1ccc(COC(Cn2ccnc2)c2ccc(Cl)cc2Cl)c(Cl)c1 (centres unmarked) [Miconazole, miconazole] |  |  |  |  |  | 2.00 | 2.00 | 2.00 |  |  |
| CN[C@H](CC(C)C)C(=O)N[C@H]1C(=O)N[C@@H](CC(N)=O)C(=O)N[C@H]2C(=O)N[C@H]3C(=O)N[C@H](C(=O)N[C@H](C(=O)O)c4cc(O)cc(O)c4-c4cc3ccc4O)[C@H](O)c3ccc(c(Cl)c3)Oc3cc2cc(c3O[C@@H]2O[C@H](CO)[C@@H](O)[C@H](O)[C@H]2O[C@H]2C[C@](C)(N)[C@H](O)[C@H](C)O2)Oc2ccc(cc2Cl)[C@H]1O [Vancomycin] | 2.00 | 2.00 | 2.00 | 2.00 |  |  |  |  |  | not synergistic or additive |
| C[C@@H](c1ncncc1F)[C@](O)(Cn1cncn1)c1ccc(F)cc1F [Voriconazole, voriconazole] |  |  |  |  | 1.13 |  |  |  | 1.13 |  |
| Teicoplanin | 0.38 | 0.53 | 0.38 | 0.38 |  |  |  |  |  |  |
